How the values were obtained:
Format in all cases: biochemical
Lck = target: T1, Lck (Homo sapiens, UniProt P06239); assay: Kinase inhibition assay (33P transfer), Lck; conditions: Table 3; read-out: Lck-1
T1 construct: Kinases are expressed as either kinase domains or full length constructs; made in house
In short: (§1)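 Radiometric readout: 33P incorporated into surface-bound poly(Glu,Tyr) 4:1 or poly(Arg,Ser) 3:1 is counted by liquid scintillation after a 0.5% phosphoric acid wash. Enzymes were GST or polyHis fusions (kinase domain or full length) from E. coli or High Five insect cells.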

Lyn = target: T2, Lyn (Homo sapiens, UniProt P07948); assay: Kinase inhibition assay (33P transfer), Lyn; conditions: Table 6, Lyn-1 kinase inhibition class
T2 construct: Kinases are expressed as either kinase domains or full length constructs; made in house
Excerpt: (§2) The inhibitor compounds described herein are screened in the following manner. Kinases suitable for use in the following protocol to determine kinase activity of the compounds described herein include, -but are not limited to: Lck, Lyn, Src, Fyn, Syk, Zap-70, Itk, Tec, Btk, EGFR, ErbB2, Kdr, Flt-1, Flt-3, Tek, c-Met, InsR, and AKT.
(§3) Kinases are expressed as either kinase domains or full length constructs fused to glutathione S-transferase (GST) or polyHistidine tagged fusion proteins in either E. colior Baculovirus-High Five expression systems. They are purified to near homogeneity by affinity chromatography essentially as previously described (Lehr et al., 1996; Gish et al., 1995). In some instances, kinases are co-expressed or mixed with purified or partially purified regulatory polypeptides prior to measurement of activity.
(§4) Kinase activity and inhibition are measured essentially by established protocols (Braunwalder et al., 1996). Briefly, The transfer of ^33PO4 from ATP to the synthetic substrates poly(Glu, Tyr) 4:1 or poly(Arg, Ser) 3:1 attached to the bioactive surface of microtiter plates serves as the basis to evaluate enzyme activity. After an incubation period, the amount of phosphate transferred is measured by first washing the plate with 0.5% phosphoric acid, adding liquid scintillant, and then counting in a liquid scintillation detector. The IC50 is determined by the concentration of compound that causes a 50% reduction in the amount of […] incorporated onto the substrate bound to the plate.

Src = target: T3, Src (Homo sapiens, UniProt P12931); assay: Kinase inhibition assay (33P transfer), Src; conditions: Table 6, Src-1 kinase inhibition class
T3 construct: Kinases are expressed as either kinase domains or full length constructs; made in house
Excerpt: as §2, §3, §4

Fyn = target: T4, Fyn (Homo sapiens, UniProt P06241); assay: Kinase inhibition assay (33P transfer), Fyn; conditions: read-out: Fyn-1
T4 construct: Kinases are expressed as either kinase domains or full length constructs; made in house
Excerpt: as §2, §3, §4

Zap-70 = target: T5, Zap-70 (Homo sapiens, UniProt P43403); assay: Kinase inhibition assay (33P transfer), Zap-70; conditions: Table 3; read-out: Zap-1
T5 construct: Kinases are expressed as either kinase domains or full length constructs; made in house
T5 sequence (P43403 1-619): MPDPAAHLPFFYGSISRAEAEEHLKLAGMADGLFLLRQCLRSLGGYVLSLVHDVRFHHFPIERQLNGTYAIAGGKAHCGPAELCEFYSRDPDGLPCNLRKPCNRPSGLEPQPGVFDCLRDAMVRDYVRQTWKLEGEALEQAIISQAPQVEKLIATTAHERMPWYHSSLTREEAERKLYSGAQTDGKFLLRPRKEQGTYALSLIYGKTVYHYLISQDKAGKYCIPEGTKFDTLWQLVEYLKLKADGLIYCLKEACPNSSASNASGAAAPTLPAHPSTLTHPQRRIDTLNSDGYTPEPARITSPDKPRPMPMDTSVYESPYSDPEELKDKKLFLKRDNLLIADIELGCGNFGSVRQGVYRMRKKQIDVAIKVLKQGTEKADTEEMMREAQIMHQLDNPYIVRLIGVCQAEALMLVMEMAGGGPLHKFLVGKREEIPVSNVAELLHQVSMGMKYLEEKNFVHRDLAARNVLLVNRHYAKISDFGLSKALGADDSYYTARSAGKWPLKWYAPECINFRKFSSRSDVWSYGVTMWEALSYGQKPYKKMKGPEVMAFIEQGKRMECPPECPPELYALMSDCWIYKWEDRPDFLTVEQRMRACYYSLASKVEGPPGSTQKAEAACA
In short: as §1

Itk = target: T6, Itk (Homo sapiens, UniProt Q08881); assay: Kinase inhibition assay (33P transfer), Itk; conditions: Table 3; read-out: Itk-1
T6 construct: Kinases are expressed as either kinase domains or full length constructs; made in house
T6 sequence (Q08881 1-620): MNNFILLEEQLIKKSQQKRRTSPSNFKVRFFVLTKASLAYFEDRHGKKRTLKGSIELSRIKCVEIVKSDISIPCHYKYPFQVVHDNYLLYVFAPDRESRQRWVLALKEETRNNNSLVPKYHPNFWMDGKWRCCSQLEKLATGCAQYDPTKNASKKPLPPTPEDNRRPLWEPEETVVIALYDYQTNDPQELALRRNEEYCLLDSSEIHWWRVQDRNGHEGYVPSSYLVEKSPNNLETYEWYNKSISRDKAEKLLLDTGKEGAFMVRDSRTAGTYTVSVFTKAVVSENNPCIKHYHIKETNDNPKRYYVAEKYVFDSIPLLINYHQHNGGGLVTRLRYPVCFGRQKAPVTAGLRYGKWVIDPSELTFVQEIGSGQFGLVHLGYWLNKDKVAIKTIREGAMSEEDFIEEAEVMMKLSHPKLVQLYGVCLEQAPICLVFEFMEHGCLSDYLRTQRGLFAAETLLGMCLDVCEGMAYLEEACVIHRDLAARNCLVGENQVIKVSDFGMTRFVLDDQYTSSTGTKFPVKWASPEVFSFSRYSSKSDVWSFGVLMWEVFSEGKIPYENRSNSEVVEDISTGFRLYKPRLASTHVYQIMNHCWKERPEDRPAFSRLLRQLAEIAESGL
In short: (§5)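 Read-out: scintillation counts of 33P moved from ATP onto synthetic peptide polymer coated on the well surface, after washing with 0.5% phosphoric acid. Enzymes were tagged (GST or polyHistidine) and came from bacterial or insect-cell expression. IC50 marks 50% loss of incorporated label.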

EGFR = target: T7, EGFR (Homo sapiens, UniProt P00533); assay: Kinase inhibition assay (33P transfer), EGFR; conditions: Table 2, kinase inhibition class; read-out: EGFR-1
T7 construct: Kinases are expressed as either kinase domains or full length constructs; made in house
In short: as §5

Kdr = target: T8, Kdr (Homo sapiens, UniProt P35968); assay: Kinase inhibition assay (33P transfer), Kdr; conditions: Table 3; read-out: KDR-1
T8 construct: Kinases are expressed as either kinase domains or full length constructs; made in house
In short: as §1

Flt-1 = target: T9, Flt-1 (Homo sapiens, UniProt P17948); assay: Kinase inhibition assay (33P transfer), Flt-1
T9 construct: Kinases are expressed as either kinase domains or full length constructs; made in house
Excerpt: as §2, §3, §4

Tek = target: T10, Tek (Homo sapiens, UniProt Q02763); assay: Kinase inhibition assay (33P transfer), Tek; conditions: read-out: Tek-1
T10 construct: Kinases are expressed as either kinase domains or full length constructs; made in house
In short: as §5

c-Met = target: T11, c-Met (Homo sapiens, UniProt P08581); assay: Kinase inhibition assay (33P transfer), c-Met; conditions: Table 2, kinase inhibition class; read-out: Met-1
T11 construct: Kinases are expressed as either kinase domains or full length constructs; made in house
In short: as §5

AKT = target: T12, AKT (Homo sapiens, UniProt Q9Y243); assay: Kinase inhibition assay (33P transfer), AKT; conditions: Table 2, kinase inhibition class; read-out: AKT3-1
T12 construct: Kinases are expressed as either kinase domains or full length constructs; made in house
In short: as §1

PDGFRB = target: T13, PDGFRB (Homo sapiens, UniProt P09619); assay: Kinase inhibition assay (33P transfer), PDGFRB; conditions: read-out: PDGFRB-1
T13 construct: Kinases are expressed as either kinase domains or full length constructs; made in house

Hck-1 = target: T14, Hck-1 (Homo sapiens, UniProt P08631); assay: Kinase inhibition assay (33P transfer), Hck; conditions: Table 6, Hck-1 kinase inhibition class
T14 construct: Kinases are expressed as either kinase domains or full length constructs; made in house

ErbB4 = target: T15, ErbB4 (Homo sapiens, UniProt Q15303); assay: Kinase inhibition assay (33P transfer), ErbB4; conditions: read-out: ErbB4-1
T15 construct: Kinases are expressed as either kinase domains or full length constructs; made in house

FGFR1 = target: T16, FGFR1 (Homo sapiens, UniProt P11362); assay: Kinase inhibition assay (33P transfer), FGFR1; conditions: read-out: FGFR1-1
T16 construct: Kinases are expressed as either kinase domains or full length constructs; made in house
T16 sequence (P11362 22-822, species assumed): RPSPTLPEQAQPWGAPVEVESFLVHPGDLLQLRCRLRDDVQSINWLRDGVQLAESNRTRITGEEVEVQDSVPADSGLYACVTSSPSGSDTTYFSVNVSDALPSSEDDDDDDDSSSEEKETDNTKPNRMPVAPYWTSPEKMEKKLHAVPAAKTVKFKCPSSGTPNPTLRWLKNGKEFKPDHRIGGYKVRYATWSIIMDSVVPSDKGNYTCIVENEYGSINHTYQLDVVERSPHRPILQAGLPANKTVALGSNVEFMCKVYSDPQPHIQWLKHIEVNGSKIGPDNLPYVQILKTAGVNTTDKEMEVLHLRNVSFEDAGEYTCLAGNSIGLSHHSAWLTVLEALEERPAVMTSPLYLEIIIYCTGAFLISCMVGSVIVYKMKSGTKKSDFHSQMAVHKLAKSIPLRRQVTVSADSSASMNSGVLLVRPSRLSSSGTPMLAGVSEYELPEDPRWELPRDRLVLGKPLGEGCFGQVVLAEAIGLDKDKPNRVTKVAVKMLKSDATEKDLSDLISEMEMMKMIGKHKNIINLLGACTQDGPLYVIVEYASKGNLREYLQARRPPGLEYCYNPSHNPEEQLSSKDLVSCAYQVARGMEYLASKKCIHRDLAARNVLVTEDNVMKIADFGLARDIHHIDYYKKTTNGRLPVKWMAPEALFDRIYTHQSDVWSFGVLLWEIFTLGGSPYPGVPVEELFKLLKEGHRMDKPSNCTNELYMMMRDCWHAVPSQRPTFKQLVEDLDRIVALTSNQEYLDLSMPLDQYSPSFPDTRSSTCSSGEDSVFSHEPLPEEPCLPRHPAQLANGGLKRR

T10 sequence (Q02763 23-1124, species assumed): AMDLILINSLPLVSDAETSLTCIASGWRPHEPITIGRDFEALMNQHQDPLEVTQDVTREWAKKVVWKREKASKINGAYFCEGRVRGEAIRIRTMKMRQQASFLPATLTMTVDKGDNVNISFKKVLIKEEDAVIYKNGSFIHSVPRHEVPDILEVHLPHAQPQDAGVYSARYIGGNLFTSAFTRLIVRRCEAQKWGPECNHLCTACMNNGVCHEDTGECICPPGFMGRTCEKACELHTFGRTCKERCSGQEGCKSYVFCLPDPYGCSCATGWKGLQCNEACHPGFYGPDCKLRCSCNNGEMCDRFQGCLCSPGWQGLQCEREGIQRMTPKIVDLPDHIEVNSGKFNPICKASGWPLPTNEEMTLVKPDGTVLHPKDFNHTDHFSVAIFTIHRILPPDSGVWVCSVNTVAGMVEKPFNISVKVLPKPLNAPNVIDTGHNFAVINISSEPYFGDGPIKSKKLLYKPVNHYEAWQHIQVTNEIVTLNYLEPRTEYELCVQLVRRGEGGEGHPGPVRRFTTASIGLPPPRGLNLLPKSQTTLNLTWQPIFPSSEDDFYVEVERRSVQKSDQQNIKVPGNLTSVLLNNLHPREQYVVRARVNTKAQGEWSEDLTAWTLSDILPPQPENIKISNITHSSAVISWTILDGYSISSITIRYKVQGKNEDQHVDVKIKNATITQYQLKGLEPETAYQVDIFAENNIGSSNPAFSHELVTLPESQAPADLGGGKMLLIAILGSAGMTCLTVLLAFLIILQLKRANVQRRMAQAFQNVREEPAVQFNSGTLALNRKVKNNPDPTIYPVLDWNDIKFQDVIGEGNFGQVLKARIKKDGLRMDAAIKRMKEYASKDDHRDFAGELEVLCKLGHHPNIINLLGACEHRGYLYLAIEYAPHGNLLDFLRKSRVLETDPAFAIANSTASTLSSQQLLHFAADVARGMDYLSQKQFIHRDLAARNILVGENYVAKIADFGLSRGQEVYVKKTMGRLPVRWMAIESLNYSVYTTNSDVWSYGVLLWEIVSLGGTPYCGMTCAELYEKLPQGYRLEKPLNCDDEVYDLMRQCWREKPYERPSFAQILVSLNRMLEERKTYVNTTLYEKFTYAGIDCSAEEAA
T1 sequence (P06239 whole entry, species assumed, the tested form may be a part): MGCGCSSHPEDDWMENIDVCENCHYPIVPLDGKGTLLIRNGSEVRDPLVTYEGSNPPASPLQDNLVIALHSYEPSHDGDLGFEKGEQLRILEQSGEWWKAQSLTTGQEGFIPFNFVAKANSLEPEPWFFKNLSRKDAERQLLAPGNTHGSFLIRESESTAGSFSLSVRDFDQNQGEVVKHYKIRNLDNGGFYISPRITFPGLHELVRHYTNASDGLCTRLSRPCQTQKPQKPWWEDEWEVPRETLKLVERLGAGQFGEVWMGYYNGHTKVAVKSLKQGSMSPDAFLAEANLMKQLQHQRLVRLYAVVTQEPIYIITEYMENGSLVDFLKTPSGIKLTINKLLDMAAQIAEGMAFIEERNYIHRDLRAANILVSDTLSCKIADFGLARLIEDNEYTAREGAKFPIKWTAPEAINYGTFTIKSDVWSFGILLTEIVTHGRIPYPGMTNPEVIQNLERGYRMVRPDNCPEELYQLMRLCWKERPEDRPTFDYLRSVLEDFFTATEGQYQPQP
T3 sequence (P12931 whole entry, species assumed, the tested form may be a part): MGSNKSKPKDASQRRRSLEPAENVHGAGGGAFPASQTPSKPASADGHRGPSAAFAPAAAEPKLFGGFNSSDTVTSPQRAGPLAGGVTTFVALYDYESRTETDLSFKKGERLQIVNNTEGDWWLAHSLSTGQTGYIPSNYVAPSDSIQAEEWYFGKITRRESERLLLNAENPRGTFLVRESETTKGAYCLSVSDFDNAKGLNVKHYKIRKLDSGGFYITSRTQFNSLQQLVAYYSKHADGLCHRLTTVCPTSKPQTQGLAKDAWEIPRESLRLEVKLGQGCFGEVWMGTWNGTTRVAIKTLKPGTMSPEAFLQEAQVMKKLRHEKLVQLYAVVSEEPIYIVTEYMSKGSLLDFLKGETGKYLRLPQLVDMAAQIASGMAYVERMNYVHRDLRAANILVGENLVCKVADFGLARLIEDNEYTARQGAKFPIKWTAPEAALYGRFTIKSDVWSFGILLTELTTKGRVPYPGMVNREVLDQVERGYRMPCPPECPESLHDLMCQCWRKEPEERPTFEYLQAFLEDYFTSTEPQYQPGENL
T2 sequence (P07948 whole entry, species assumed, the tested form may be a part): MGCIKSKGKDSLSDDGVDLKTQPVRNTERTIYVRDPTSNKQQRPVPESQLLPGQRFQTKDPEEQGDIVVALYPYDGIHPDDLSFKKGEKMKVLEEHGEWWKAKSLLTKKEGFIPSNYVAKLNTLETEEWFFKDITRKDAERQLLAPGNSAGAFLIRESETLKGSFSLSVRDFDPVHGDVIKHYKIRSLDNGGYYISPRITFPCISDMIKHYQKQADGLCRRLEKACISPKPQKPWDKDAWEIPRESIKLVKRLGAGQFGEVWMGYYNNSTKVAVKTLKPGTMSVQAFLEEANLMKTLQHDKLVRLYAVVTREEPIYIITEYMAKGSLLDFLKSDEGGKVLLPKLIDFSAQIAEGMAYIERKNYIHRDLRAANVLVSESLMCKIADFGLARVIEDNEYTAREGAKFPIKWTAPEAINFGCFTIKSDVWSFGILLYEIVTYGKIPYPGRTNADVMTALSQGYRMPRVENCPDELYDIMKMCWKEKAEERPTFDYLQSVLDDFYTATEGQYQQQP
T7 sequence (P00533 25-1210, species assumed): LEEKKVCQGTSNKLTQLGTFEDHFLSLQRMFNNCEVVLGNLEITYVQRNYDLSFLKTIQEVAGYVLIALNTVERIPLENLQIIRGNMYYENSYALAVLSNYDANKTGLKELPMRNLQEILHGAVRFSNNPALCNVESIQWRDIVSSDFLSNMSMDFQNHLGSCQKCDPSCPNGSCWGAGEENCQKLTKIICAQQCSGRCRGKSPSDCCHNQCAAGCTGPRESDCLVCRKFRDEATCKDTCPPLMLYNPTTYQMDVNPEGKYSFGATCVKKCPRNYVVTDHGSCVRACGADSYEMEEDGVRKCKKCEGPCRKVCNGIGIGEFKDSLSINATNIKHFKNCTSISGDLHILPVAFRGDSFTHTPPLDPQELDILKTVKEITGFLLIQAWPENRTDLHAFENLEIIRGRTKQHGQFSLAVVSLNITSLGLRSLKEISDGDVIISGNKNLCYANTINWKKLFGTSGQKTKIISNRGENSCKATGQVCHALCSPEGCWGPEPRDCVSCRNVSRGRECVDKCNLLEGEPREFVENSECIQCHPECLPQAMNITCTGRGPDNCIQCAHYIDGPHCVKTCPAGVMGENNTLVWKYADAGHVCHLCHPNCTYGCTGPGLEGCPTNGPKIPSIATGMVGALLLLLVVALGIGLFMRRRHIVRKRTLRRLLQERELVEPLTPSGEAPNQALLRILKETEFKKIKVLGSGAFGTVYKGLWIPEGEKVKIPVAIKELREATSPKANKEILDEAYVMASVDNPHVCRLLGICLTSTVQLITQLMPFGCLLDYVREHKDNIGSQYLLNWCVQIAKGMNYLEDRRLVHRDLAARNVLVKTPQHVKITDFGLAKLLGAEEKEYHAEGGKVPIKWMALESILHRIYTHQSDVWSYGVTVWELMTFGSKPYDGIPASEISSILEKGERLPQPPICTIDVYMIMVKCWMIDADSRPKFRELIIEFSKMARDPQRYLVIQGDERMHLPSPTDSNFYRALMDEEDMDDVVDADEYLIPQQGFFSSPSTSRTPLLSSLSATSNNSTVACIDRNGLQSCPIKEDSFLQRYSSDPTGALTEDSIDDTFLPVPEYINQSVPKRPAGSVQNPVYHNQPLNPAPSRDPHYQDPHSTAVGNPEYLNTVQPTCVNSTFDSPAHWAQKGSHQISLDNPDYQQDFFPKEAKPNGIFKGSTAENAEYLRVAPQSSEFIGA

| IC50 (Lck) [µM] | IC50 (Lyn) [µM] | IC50 (Src) [µM] | IC50 (Fyn) [µM] | IC50 (Zap-70) [µM] | IC50 (Itk) [µM] | IC50 (EGFR) [µM] | IC50 (Kdr) [µM] | IC50 (Flt-1) [µM] | IC50 (Tek) [µM] | IC50 (c-Met) [µM] | IC50 (AKT) [µM] | IC50 (PDGFRB) [µM] | IC50 (Hck-1) [µM] | IC50 (ErbB4) [µM] | IC50 (FGFR1) [µM] | SMILES |
| --- | --- | --- | --- | --- | --- | --- | --- | --- | --- | --- | --- | --- | --- | --- | --- | --- |
| 1.14 to 6.87 | 1.14 to 6.87 | 1.14 to 6.87 | 1.14 to 6.87 | > 12.9 | 1.14 to 6.87 | 1.14 to 6.87 | < 1.14 | 1.14 to 6.87 | 1.14 to 6.87 | 1.14 to 6.87 | 1.14 to 6.87 | 1.14 to 6.87 | > 12.9 | 1.14 to 6.87 | < 1.14 | OCc1ccc(Nc2ncnc(Nc3cc(-c4ccco4)n[nH]3)n2)cc1 [Compound 430] |
| 0.785 to 4.71 | 0.785 to 4.71 | > 8.83 | 0.785 to 4.71 | > 8.83 | > 8.83 | > 8.83 | 0.785 to 4.71 | 4.71 to 6.87 | > 8.83 | > 8.83 | > 8.83 | 0.785 to 4.71 | > 8.83 | > 8.83 | < 0.785 | COc1cc(Nc2ncnc(-n3c(Nc4ccc5cn[nH]c5c4)nc4ccccc43)n2)cc(OC)c1OC [Compound 406] |
| > 9.29 | 0.826 to 4.95 | 0.826 to 4.95 | 0.826 to 4.95 | > 9.29 | > 9.29 | > 9.29 | < 0.826 | 0.826 to 4.95 | > 9.29 | > 9.29 | > 9.29 | < 0.826 | > 9.29 | > 9.29 | < 0.826 | COc1cc(Nc2ncnc(-n3c(NCc4ccncc4)nc4ccccc43)n2)cc(OC)c1OC [Compound 413] |
| 0.785 to 4.71 | 0.785 to 4.71 | 4.71 to 6.87 | 0.785 to 4.71 | > 8.83 | 0.785 to 4.71 | 6.87 to 8.83 | < 0.785 | < 0.785 | > 8.83 | > 8.83 | 6.87 to 8.83 | < 0.785 | 6.87 to 8.83 | > 8.83 | < 0.785 | COc1cc(Nc2ncnc(-n3c(Nc4ccc5[nH]ncc5c4)nc4ccccc43)n2)cc(OC)c1OC [Compound 404] |
| < 0.812 | < 0.812 | 0.812 to 4.87 | 0.812 to 4.87 | > 9.14 | 4.87 to 7.11 | > 9.14 | < 0.812 | < 0.812 | 7.11 to 9.14 | 0.812 to 4.87 | > 9.14 | < 0.812 | > 9.14 | > 9.14 | < 0.812 | COc1cc(Nc2ncnc(-n3c(N)nc4ccccc43)n2)cc(OCCN2CCOCC2)c1OC [Compound 466] |
| 6.07 to 8.85 | > 11.4 | > 11.4 | 1.01 to 6.07 | > 11.4 | > 11.4 | > 11.4 | < 1.01 | 1.01 to 6.07 | > 11.4 | > 11.4 | > 11.4 | < 1.01 | > 11.4 | > 11.4 | > 11.4 | COc1cc(Nc2ncnc(-n3ccc4cc(F)ccc43)n2)cc(OC)c1OC [Compound 441] |
| 7.55 to 9.71 | 0.863 to 5.18 | 0.863 to 5.18 | > 9.71 | > 9.71 | > 9.71 | > 9.71 | < 0.863 | 0.863 to 5.18 | > 9.71 | < 0.863 | > 9.71 | < 0.863 | > 9.71 | > 9.71 | < 0.863 | CCOC(=O)Cc1cn(-c2ncnc(Nc3cc(OC)c(OC)c(OC)c3)n2)c2ccccc12 [Compound 411] |
| < 0.919 | < 0.919 | 0.919 to 5.51 | 0.919 to 5.51 | > 10.3 | > 10.3 | > 10.3 | < 0.919 | 0.919 to 5.51 | > 10.3 | > 10.3 | > 10.3 | < 0.919 | > 10.3 | > 10.3 | < 0.919 | COc1cc(Nc2ncnc(-n3c(NC(C)C)nc4ccccc43)n2)cc(OC)c1OC [Compound 403] |
| 0.826 to 4.95 | 0.826 to 4.95 | 4.95 to 7.22 | 7.22 to 9.29 | > 9.29 | > 9.29 | > 9.29 | < 0.826 | 0.826 to 4.95 | > 9.29 | > 9.29 | > 9.29 | < 0.826 | > 9.29 | > 9.29 | < 0.826 | COc1cc(Nc2ncnc(-n3c(NCc4cccnc4)nc4ccccc43)n2)cc(OC)c1OC [Compound 416] |
| < 0.801 | > 9.01 | > 9.01 | > 9.01 | > 9.01 | > 9.01 | > 9.01 | < 0.801 | < 0.801 | > 9.01 | > 9.01 | > 9.01 | < 0.801 | > 9.01 | > 9.01 | < 0.801 | COc1ccc(Nc2nc3ccccc3n2-c2ncnc(Nc3cc(OC)c(OC)c(OC)c3)n2)cc1 [Compound 397] |
